Source: PMC10762078, “Role of UPF1-LIN28A interaction during early differentiation of pluripotent stem cells” (Nature Communications, 2024)

Tested on: CHA15 cells transcriptome / NMD targets
Experiment: RNA-seq of CPP-P8/CPP-P1-treated CHA15 cells with siControl or siLIN28A (Supplementary Fig. 6e)
Format: cell-based, Homo sapiens
Experimental: For CPP-conjugated peptide delivery, HeLa, 293T, and PA-1 cells were incubated with CPP-conjugated peptides or CPP-FITC at 2 μM in DMEM with 10% FBS for 12 h a day before cell harvest. hPSCs were treated with CPP-conjugated peptides at 10 μM in mTeSR Plus Medium, and the peptide-containing medium was changed every day over 10 days. The ROCK inhibitor (Tocris Bioscience, Y-27632) treated-hPSCs were dissociated into single cells using Accutase (Merck, SCR005) and differentiated into ectoderm, mesoderm, and endoderm using the STEMdiff Trilineage Differentiation Kit ([…] Technologies, 05230) following the manufacturer’s protocol. Differentiated cells treated with CPP-conjugated peptides were analysed at 0, 3, and 5 days for ectoderm and endoderm, and at 0, 3, and 4 days for mesoderm.
Total RNA concentration was calculated using Quant-IT RiboGreen (Invitrogen, R11490). To assess the integrity of the total RNA, samples were run on a TapeStation RNA screentape (Agilent). Only high-quality RNA preparations with RNA integrity number greater than 7.0 were used for the RNA library construction. A library was independently prepared with 1 μg of total RNA from each sample using the Illumina TruSeq Stranded mRNA Sample Prep Kit (Illumina, 20020594). The first step in the workflow involves purifying poly‐A-containing mRNA molecules using poly‐T‐attached magnetic beads. Following purification, mRNA was fragmented into small pieces using divalent cations at elevated temperatures. The cleaved RNA fragments were copied into first-strand cDNA using SuperScript II reverse transcriptase (Invitrogen, 18064022) and random primers. This was followed by second-strand cDNA synthesis using DNA polymerase I, RNase H, and dUTP. These cDNA fragments underwent an end repair process, adding a single ‘A’ base and ligating the adapters. The products were purified and enriched via PCR to create the final cDNA library. The libraries were quantified using the KAPA Library Quantification Kits for Illumina Sequencing platforms according to the qPCR Quantification Protocol Guide (KAPA BIOSYSTEMS, KR0405) and qualified using the TapeStation D1000 ScreenTape (Agilent). Indexed libraries were then submitted to an Illumina NovaSeq (Illumina), and Macrogen Inc. performed paired-end (2 × 100 bp) sequencing.
We pre-processed the raw reads from the sequencer to remove low-quality reads and adapter sequences before analysis and aligned the processed reads to Homo sapiens (GRCh37) using HISAT v2.1.0[52]. HISAT utilises two indices for alignment (a global whole-genome index and tens of thousands of small local indexes). These two types of indices are constructed using the same Burrows-Wheeler transform (BWT)/graph FM index (GFM) as Bowtie2. The reference genome sequence of Homo sapiens (GRCh37) and the annotation data were downloaded from the NCBI database. Transcript assembly was processed using StringTie v1.3.4d[53],[54]. […] Differentially expressed genes (DEGs) were analysed by ratio of FPKM or using DESeq2 with read counts. Log2 fold-change value of the NMD targets[25],[32], three germ layer markers, miRNA targets, or SDGs was converted into cumulative frequency curve using the R function, ‘ecdf’ (version 4.0.5). Gene functional classification and Gene ontology (GO) were performed using g:Profiler[56]. […]
Scale bars, 100 μm . d (Corresponding to Fig. 6d) RT -qPCR was perform ed to evaluate the level of indicated transcripts upon the indicated peptide treatm ent in CHA15 cells. e T ranscriptom e analysis was perf orm ed using signif icantly changed transcripts (p < 0.05) f rom siLIN28A or siControl in the indicated CPP-peptide treated CHA15 cells. Scatter […]
(bottom panel), respectively. f Levels of m ature endogenous m iRNAs in CHA15 cells, which were regulated by LIN28A, were assessed using RT -qPCR. Cum ulative f raction of log2 fold change in the expression of genes regulated by let-7-5p and m iR-16- 5p was shown as CDF graphs. […]

[1] = CHA15, absence of LIN28A (siRNA)

Sequence: KKKWCRKKKSSADEKRYRALKRTAERELLMNA [CPP-P8, CPP conjugated to P8]
- fraction deregulated in a LIN28A-independent manner (7 (6+1) out of 95 (42+53)): 7.4%
- transcripts downregulated over 2-fold [1]: 2 transcripts
- transcripts upregulated over 2-fold [1]: 12
- transcripts downregulated over 2-fold (CHA15, presence of LIN28A): 53 transcripts
- transcripts upregulated over 2-fold (CHA15, presence of LIN28A): 42 transcripts
- FEZF1-AS1 expression (CHA15, siControl): 20.4087 FPKM
- LHX5-AS1 expression (CHA15, siControl): 61.4319 FPKM
- LMO1 expression (CHA15, siControl): 15.1171 FPKM
- CUZD1 expression (CHA15, siLIN28A): 5.545 FPKM
- CXCL5 expression (CHA15, siLIN28A): 5.9 FPKM
- MT2A expression (CHA15, siLIN28A): 11.8304 FPKM
- transcriptome change in absence of LIN28A (hESCs, siLIN28A): less impact on the transcriptome change, including NMD targets, in the absence of LIN28A
